# From patent publication US20260364138A1, “ENRICHED ASPARAGUS RACEMOSUS ROOT COMPOSITION AND PROCESS FOR PREPARATION THEREOF” (LAILA NUTRA PRIVATE LIMITED, priority 2023, published 2026)
# Columns and labels:
# [1] = test system: Cyclophosphamide-induced primary ovarian insufficiency in Sprague Dawley rats; experiment: Cyclophosphamide-induced primary ovarian insufficiency in female Sprague Dawley rats, total follicular count; details: rat, in vivo
# Experimental: Evaluation of Asparagus racemosus enriched extract compositions supplementation on total follicular count of female Sprague Dawley rats: Ovarian follicles contain oocytes and surrounded by granulosa cells. Four different types of follicles are observed in ovaries based on their development stages: primordial, primary, secondary, and tertiary (antral). The number of primordial follicles, which is the true ovarian reserve, is determined in the fetus and declines throughout life. However, the primordial follicles cannot be visualized by ultrasound due to their small size (<0.05 mm diameter). The antral or Graafian follicles are more easily identifiable by ultrasound when they reach 2 mm in diameter. It is recommended that a follicular count needs to be performed in the early follicular phase of the menstrual cycle. However, considering the intracycle fluctuation of ovarian reserve, a follicular count may be performed at any point in the menstrual cycle. […]
# Example 28: In-vivo efficacy of AR-1 and Comp-1 in mitigating Cyclophosphamide-induced primary ovarian insufficiency in Sprague Dawley rats. […] Twenty randomly selected fields were analysed for primordial, primary, antral, […], and atretic follicles, and the average of total number of follicles present in each tissue section was calculated.
# [2] = test system: Letrozole-induced PCOS in female Sprague Dawley rats; experiment: Oral glucose tolerance test (OGTT) in letrozole-induced PCOS rats; assay type: in vivo; details: mean ± SD, n = 7, 20 mg/kg daily days 22-48 after letrozole induction, letrozole group 1 mg/kg without test item, day 49
# Source text: Evaluation of Asparagus racemosus synergistic enriched extract compositions (comp-26, comp-27, comp-28 and 90% aqueous ethanol extract (AR-2) supplementation in letrozole-induced PCOS in female Sprague Dawley rats: Oral glucose tolerance test (OGTT): OGTT measures circulatory glucose levels following glucose ingestion, and this test is widely used as an indicator of insulin resistance. PCOS is known to cause metabolic dysfunctions, including insulin resistance. Letrozole-induced rats show impaired glucose tolerance and increased blood glucose in circulation, which closely mimics the clinical features of glucose intolerance or insulin resistance in PCOS.
# Area Under the Curve (AUC) was calculated using serum glucose concentration Vs. time (in min). The AUC value was increased in letrozole-induced (G2) rats when compared with the Vehicle control (G1) rats, indicating impaired glucose tolerance or increased insulin resistance.
# (§1) Following a 7-day acclimatization period, female Sprague Dawley rats (age: 10-12 weeks, body weight 250-300 g) were randomly assigned to six groups (n=7): vehicle control (G1), Letrozole (G2; 1 mg/kg), AR-2 (G3; 20 mg/kg), Comp-26 (G4; 20 mg/kg), Comp-27 (G5; 20 mg/kg), and Comp-28 (G6; 20 mg/kg).
# The study was performed in two phases i.e., the induction and supplementation phases. […]
# [3] = test system: Letrozole-induced PCOS in female Sprague Dawley rats; experiment: Serum 17β-estradiol in letrozole-induced PCOS rats; assay type: in vivo; details: mean ± SD, n = 7; 20 mg/kg daily after letrozole induction; letrozole group 1 mg/kg; day 48
# Experimental: as §1
# (§2) The study was performed in two phases i.e., the induction and supplementation phases. In the induction phase, all the animals, except for G1, were gavaged with letrozole to induce PCOS for 21 days. In the supplementation phase (from days 22 to 48), all rats were supplemented once daily with either the vehicle or one of the test items. An oral glucose tolerance test (OGTT) was performed on day 49 in overnight fasted rats. Blood samples were collected on day 48. The serum was separated by centrifuging the blood samples at 3200×g for 15 minutes at 4 °C and stored at −80 °C in aliquots for biomarker analysis. On day 50, all rats were euthanized using CO2 asphyxiation, and their ovaries were collected. The ovaries were fixed in 10% normal buffered formalin for histopathology examination. The fixed tissues were paraffin-embedded, sectioned (5-7 μm) using a microtome, and stained with hematoxylin-eosin following the standard protocols. The stained tissue sections were examined at 10× magnification under a light microscope (Carl Zeiss, Germany).
# [4] = test system: Letrozole-induced PCOS in female Sprague Dawley rats; experiment: Serum testosterone in letrozole-induced PCOS rats; assay type: in vivo; details: mean ± SD, n = 7; 20 mg/kg daily after letrozole induction; letrozole group 1 mg/kg; day 48
# Experimental: as §1, §2
# [5] = test system: estrogen receptor alpha phosphorylated at Serine 118 position (pER-α); experiment: Evaluation of estrogen-receptor alpha (ER-α) phosphorylation by Western blot assay (normalized pER-α expression) in MCF-7 cells; assay type: cell-based, Human; details: 0.2 μg/mL, MCF-7, 4 h; for pER-α expression (normalized): Table 3 (vehicle control 0.28); for activation at 0.2 µg/mL: Homo sapiens, MCF7, read-out: % increase of pER-α (from vehicle control)
# Experimental: The four compounds of Asparagus racemosus root Shatavarin I, dehydroshatavarin I, shatavarin IV, and shatavarin IX, and their combinations were evaluated for their ability to enhance the pER-α (estrogen receptor alpha phosphorylated at Serine 118 position) expression in a human breast tumor cell line, MCF-7, and the results are presented in Table 3. pER-α represents the active form of the hormone receptor.
# Human MCF-7 cells (ATCC Cat #HTB-22; 5×10^5 cells/well in 3 mL) were seeded in 6-well cell culture plates and maintained in DMEM medium containing 10% FBS at 37 °C in a humidified atmosphere of 5% CO2. After 48 hours of seeding, cells were washed twice with serum-free DMEM medium (without phenol red) and maintained in the same media for another 24 hours. Cells were treated with different test samples (0.2 μg/mL) in serum-free DMEM medium and incubated for 4 hours at 37 °C in a CO2 incubator. The untreated cells served as a vehicle control.
# Western blot: After the incubation, cell culture plates were placed on an ice tray and washed twice with cold 1×PBS. Eighty microliters of lysis buffer (10 mM Tris-HCl pH 7.4, 150 mM NaCl, 1 mM EDTA, 1 mM [COMPOUND LEFT OUT], 10 μg/mL Aprotinin, 10 μg/mL Leupeptin, 1% Triton X-100, 1 mM NaF, 1 mM Na3VO4, 0.5% Sodium deoxycholate, and 1 μM Pepstatin) was added to each well and sonicated for 30 seconds. Following homogenization, samples were centrifuged at 16128×g for 10 minutes at 4 °C to sediment unbroken cells and nuclei. Supernatant was collected, and protein was quantified using a Pierce BCA protein assay kit (Thermo Scientific Cat #23225). SDS-PAGE was performed for the protein samples, and resolved proteins were transferred onto nitrocellulose membrane using the wet blotting method. Briefly, 10 μg of protein was loaded onto acrylamide gel (7.5% resolving) and ran at 100V for approximately 1 hour 40 minutes. At the end of the run, proteins were transferred to the nitrocellulose membrane by placing transfer system at 4 °C chamber (100V for 2 hours). After the transfer, the membrane was washed in 0.1M Tris-buffered saline containing 0.05% Tween20 (TBST) and blocked in Superblock blocking buffer (Thermo Scientific Cat #37535) with constant agitation for 30 minutes. The membrane was incubated with primary antibodies recognizing phospho-ER-α (Phosphorylation site: Ser118) in TBST for 16 hours at 4 °C with agitation. The membrane was washed three times and incubated with peroxidase affiniPure goat anti-rabbit secondary antibody (Jackson ImmunoResearch Cat #111-035-045; 1:10000 dilution) for 1 hour at room temperature with agitation, followed by three times of washing in TBST for 5 minutes each. Immunoreactive bands were detected using a chemiluminescent substrate (Thermo Scientific Cat #34080) and images were captured using Bio-Rad Molecular imager (Model: ChemiDOC MP). Membrane was stripped of the phospho-ER-α antibody and re-probed with […] antibody (Sigma Chemical Co., USA; 1:10000 dilution) by incubating at room temperature for 2 hours and images were captured. The intensities of phospho-ER-α and actin protein bands were calculated using Carestream MI software and normalized. The normalized pER-α expression (in arbitrary units) was measured using the following formula: […]
Compound,pER-α expression (normalized) [5] [arbitrary units],"activation at 0.2 µg/mL ([5]; markers, Table 3) [%]",also measured
O=P1(N(CCCl)CCCl)NCCCO1 (stereo not shown) [Cyclophosphamide],–,–,Average total follicular count [1]: 5.63 per section
N#Cc1ccc(C(c2ccc(C#N)cc2)n2cncn2)cc1 [Letrozole],–,–,"AUC (serum glucose, OGTT) [2]: 21030 ± 4007 mg/dL/min; AUC (serum glucose, OGTT) ([2]; listed as letrozole): increased; 17β-Estradiol concentration (serum) [3]: 32.97 ± 13.89 pg/mL; Testosterone concentration (serum) [4]: 3.18 ± 1.16 pg/mL"
CC1CCC2(OC1)OC1CC3C4CCC5CC(OC6OC(CO)C(OC7OC(C)C(O)C(O)C7O)C(O)C6OC6OC(CO)C(O)C(O)C6O)CCC5(C)C4CCC3(C)C1C2C (stereo not shown) [Shatavarin IV],0.40,42.9,–
CC1CCC2(OC1)OC1CC3C4CCC5CC(OC6OC(CO)C(OC7OC(CO)C(O)C(O)C7O)C(O)C6OC6OC(CO)C(O)C(O)C6O)CCC5(C)C4CCC3(C)C1C2C (stereo not shown) [Shatavarin IX],0.38,35.7,–
CC(CCC1(O)OC2CC3C4CCC5CC(OC6OC(CO)C(OC7OC(C)C(O)C(O)C7O)C(O)C6OC6OC(CO)C(O)C(O)C6O)CCC5(C)C4CCC3(C)C2C1C)COC1OC(CO)C(O)C(O)C1O (stereo not shown) [Shatavarin I],0.34,21.4,–
dehydroshatavarin I,0.45,–,"% increase of pER-α (from vehicle control) ([5]; markers, Table 3): 60.71%"
